From US20250368649A1, “TETRAHYDROPYRIDOPYRIMIDINE PAN-KRAS INHIBITORS” (Mirati Therapeutics, Inc., priority 2022, published 2025)

Key:
[1] = molecular target: KRas G12V (Homo sapiens, UniProt P01116, G12V); assay: biochemical; conditions: Binding to KRas (IC50 nM) G12V, TR-FRET displacement, KRas G12V
[2] = test system: H460 cells; assay: Inhibition of KRas-mediated phosphorylation of ERK (Cisbio HTRF pERK), H460 cells; assay type: cell-based; conditions: Homo sapiens; for inhibition at 0.1 µM: NCI-H460, single point at 100 nM, 3 hrs compound incubation
[3] = test system: H727 cells; assay: Inhibition of KRas-mediated phosphorylation of ERK (Cisbio HTRF pERK), H727 cells; assay type: cell-based; conditions: Homo sapiens; for IC50: NCI-H727, 3 h, 3 hr compound incubation, Cisbio pERK HTRF; for inhibition at 0.1 µM: NCI-H727, single point at 100 nM, 3 hrs compound incubation
[4] = test system: HCT116 cells; assay: Inhibition of KRas-mediated phosphorylation of ERK (Cisbio HTRF pERK), HCT116 cells; assay type: cell-based; conditions: Homo sapiens; for inhibition at 0.1 µM: HCT-116, single point at 100 nM, 3 hrs compound incubation
[5] = test system: A549 cells; assay: Inhibition of KRas-mediated phosphorylation of ERK (Cisbio HTRF pERK), A549 cells; assay type: cell-based; conditions: Homo sapiens; for inhibition at 0.1 µM: single point at 100 nM, 3 hrs compound incubation
[6] = test system: H358 cells; assay: Inhibition of KRas-mediated phosphorylation of ERK (Cisbio HTRF pERK), H358 cells; assay type: cell-based; conditions: Homo sapiens; for inhibition at 0.1 µM: NCI-H358, single point at 100 nM, 3 hrs compound incubation
[7] = molecular target: KRas G12D (Homo sapiens, UniProt P01116, G12D); assay: biochemical; conditions: Binding to KRas (IC50 nM) G12D, TR-FRET displacement, KRas G12D
Sequence of KRas G12D (P01116 1-169 isoform P01116-2 G12D): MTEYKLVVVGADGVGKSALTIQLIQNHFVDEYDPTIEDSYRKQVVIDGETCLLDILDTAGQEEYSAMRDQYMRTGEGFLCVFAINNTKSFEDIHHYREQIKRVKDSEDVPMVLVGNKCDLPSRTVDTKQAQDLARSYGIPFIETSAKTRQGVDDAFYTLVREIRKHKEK

[8] = test system: ASPC1 cells; assay: Inhibition of KRas-mediated phosphorylation of ERK (Cisbio HTRF pERK), ASPC1 cells; assay type: cell-based; conditions: Homo sapiens, AsPC-1 cells; for IC50: ASPC1, 3 h, 3 hr compound incubation, Cisbio pERK HTRF; for inhibition at 0.1 µM: ASPC1, single point at 100 nM, 3 hrs compound incubation
[9] = molecular target: KRas G12R (Homo sapiens, UniProt P01116, G12R); assay: biochemical; conditions: Binding to KRas (IC50 nM) G12R, TR-FRET displacement, KRas G12R
Sequence of KRas G12R (P01116 1-169 isoform P01116-2 G12R): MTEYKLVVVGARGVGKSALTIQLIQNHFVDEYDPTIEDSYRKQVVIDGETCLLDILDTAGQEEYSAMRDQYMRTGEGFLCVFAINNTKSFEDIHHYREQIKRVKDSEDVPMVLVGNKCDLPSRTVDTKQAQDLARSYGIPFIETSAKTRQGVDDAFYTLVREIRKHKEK

Sequence of KRas G12V (P01116 1-169 isoform P01116-2 G12V): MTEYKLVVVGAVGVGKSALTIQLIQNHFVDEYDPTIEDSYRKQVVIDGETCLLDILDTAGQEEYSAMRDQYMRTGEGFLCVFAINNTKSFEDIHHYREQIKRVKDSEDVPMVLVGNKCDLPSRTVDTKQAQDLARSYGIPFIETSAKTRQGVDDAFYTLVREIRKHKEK

IC50 [1] [nM]	IC50 [3] [nM]	IC50 [7] [nM]	IC50 [8] [nM]	IC50 [9] [nM]	IC50 ([2]; NCI-H460, 3 h, 3 hr compound incubation, Cisbio pERK HTRF) [nM]	IC50 ([4]; HCT-116, 3 h, 3 hr compound incubation, Cisbio pERK HTRF) [nM]	IC50 ([5]; A549, 3 h, 3 hr compound incubation, Cisbio pERK HTRF) [nM]	IC50 ([6]; NCI-H358, 3 h, 3 hr compound incubation, Cisbio pERK HTRF) [nM]	Structure (SMILES)	inhibition at 0.1 µM [2] [%]	inhibition at 0.1 µM [4] [%]	inhibition at 0.1 µM [5] [%]	inhibition at 0.1 µM [6] [%]	inhibition at 0.1 µM [3] [%]	inhibition at 0.1 µM [8] [%]
21	335	8	445	18	–	–	–	–	CCc1c(F)ccc2cc(O)cc(N3CCc4c(nc(OC[C@@]56CCCN5C[C@H](F)C6)nc4N4CCCn5nc(CN(C)S(=O)(=O)N(C)C)cc5C4)C3)c12 [Example 343, 7-(8-ethyl-7-fluoro-3-hydroxy-1-naphthyl)-2-(((2R,7aS)-2-fluorotetrahydro-1H-pyrrolizin-7a(5H)-yl)methoxy)-4-(2-((dimethylsulfamoyl)methylamino)methyl-7,8-dihydro-4H-pyrazolo[1,5-a][1,4]diazepin-5(6H)-yl)-6,8-dihydro-5H-pyrido[3,4-d]pyrimidine]	7	-2	4	-13	–	–
4	822	6	1220	< 2	–	–	–	–	CCc1c(F)ccc2cc(O)cc(N3CCc4c(nc(OC[C@@]56CCCN5C[C@H](F)C6)nc4N4CCCCC(CC(=O)NC)C4)C3)c12 (stereo partly drawn) [Example 346, 2-(1-(7-(8-ethyl-7-fluoro-3-hydroxynaphthalen-1-yl)-2-(((2R,7aS)-2-fluorohexahydro-1H-pyrrolizin-7a-yl)methoxy)-5,6,7,8-tetrahydropyrido[3,4-d]pyrimidin-4-yl)azepan-3-yl)-N-methylacetamide]	9	7	19	11	–	–
2	541	7	690	2	–	–	–	–	CCc1c(F)ccc2cc(O)cc(N3CCc4c(nc(OC[C@@]56CCCN5C[C@H](F)C6)nc4N4CCCCC(CC(N)=O)C4)C3)c12 (stereo partly drawn) [Example 347, 2-(1-(7-(8-ethyl-7-fluoro-3-hydroxynaphthalen-1-yl)-2-(((2R,7aS)-2-fluorohexahydro-1H-pyrrolizin-7a-yl)methoxy)-5,6,7,8-tetrahydropyrido[3,4-d]pyrimidin-4-yl)azepan-3-yl)acetamide]	21	-14	28	5	–	–
6	1060	12	3660	4	–	–	–	–	CCc1c(F)ccc2cc(O)cc(N3CCc4c(nc(OC[C@@]56CCCN5C[C@H](F)C6)nc4N4CCCCC(P(C)(C)=O)C4)C3)c12 (stereo partly drawn) [Example 351, (1-(7-(8-ethyl-7-fluoro-3-hydroxynaphthalen-1-yl)-2-(((2R,7aS)-2-fluorotetrahydro-1H-pyrrolizin-7a(5H)-yl)methoxy)-5,6,7,8-tetrahydropyrido[3,4-d]pyrimidin-4-yl)azepan-3-yl)dimethylphosphine oxide]	1	5	11	-7	–	–
253	–	182	–	537	–	–	–	–	CCc1c(F)ccc2cc(O)cc(N3CCc4c(nc(N5CC(C)(N)C5)nc4N4CCCn5nc(C(=O)N(C)C)cc5C4)C3)c12 [Example 427, 5-(2-(3-amino-3-methylazetidin-1-yl)-7-(8-ethyl-7-fluoro-3-hydroxynaphthalen-1-yl)-5,6,7,8-tetrahydropyrido[3,4-d]pyrimidin-4-yl)-N,N-dimethyl-5,6,7,8-tetrahydro-4H-pyrazolo[1,5-a][1,4]diazepine-2-carboxamide]	25	4	0	-16	-14	-23
< 2	95	< 2	113	3	–	–	–	–	CCc1c(F)ccc2cc(O)cc(N3CCc4c(nc(OCC5(CN(C)C)CC5)nc4N4CCCn5nc(C(=O)N6CCOCC6)cc5C4)C3)c12 [Example 429, (5-(2-((1-((dimethylamino)methyl)cyclopropyl)methoxy)-7-(8-ethyl-7-fluoro-3-hydroxynaphthalen-1-yl)-5,6,7,8-tetrahydropyrido[3,4-d]pyrimidin-4-yl)-5,6,7,8-tetrahydro-4H-pyrazolo[1,5-a][1,4]diazepin-2-yl)(morpholino)methanone]	-3	-4	23	19	–	–
10	1160	26	2610	11	–	–	–	–	CCc1c(F)ccc2cc(O)cc(N3CCc4c(nc(N5CC(N(C)C)C5)nc4N4CCCC5(C4)NC(=O)NC5=O)C3)c12 (stereo not shown) [Example 433, 7-(2-(3-(dimethylamino)azetidin-1-yl)-7-(8-ethyl-7-fluoro-3-hydroxynaphthalen-1-yl)-5,6,7,8-tetrahydropyrido[3,4-d]pyrimidin-4-yl)-1,3,7-triazaspiro[4.5]decane-2,4-dione]	6	1	9	-7	0	-5
< 2	179	< 2	202	< 2	170	338	373	44	O=S1(=O)NCC2(CCCN(c3nc(OC[C@@]45CCCN4C[C@H](F)C5)nc4c3CCN(c3cc(O)cc5ccc(F)c(F)c35)C4)C2)N1 (stereo partly drawn) [Example 447, 7-(7-(7,8-difluoro-3-hydroxynaphthalen-1-yl)-2-(((2R,7aS)-2-fluorohexahydro-1H-pyrrolizin-7a-yl)methoxy)-5,6,7,8-tetrahydropyrido[3,4-d]pyrimidin-4-yl)-2-thia-1,3,7-triazaspiro[4.5]decane 2,2-dioxide]	35	28	28	61	24	23
< 2	597	< 2	615	< 2	–	–	–	–	Oc1cc(N2CCc3c(nc(OC[C@@]45CCCN4C[C@H](F)C5)nc3N3CCCC4(CCO4)C3)C2)c2c(Cl)c(F)ccc2c1 (stereo partly drawn) [Example 463, 5-chloro-6-fluoro-4-(2-(((2R,7aS)-2-fluorohexahydro-1H-pyrrolizin-7a-yl)methoxy)-4-(1-oxa-6-azaspiro[3.5]nonan-6-yl)-5,6-dihydropyrido[3,4-d]pyrimidin-7(8H)-yl)naphthalen-2-ol]	2	-3	18	-13	20	15
3	1770	2	1940	10	–	–	–	–	CN(C)CC1(COc2nc3c(c(N4CCCn5nc(C(=O)N6CCOCC6)cc5C4)n2)CCN(c2cc(O)cc4ccc(F)c(Cl)c24)C3)CC1 [Example 468, (5-(7-(8-chloro-7-fluoro-3-hydroxynaphthalen-1-yl)-2-((l-((dimethylamino)methyl)cyclopropyl)methoxy)-5,6,7,8-tetrahydropyrido[3,4-d]pyrimidin-4-yl)-5,6,7,8-tetrahydro-4H-pyrazolo[1,5-a][1,4]diazepin-2-yl)(morpholino)methanone]	-7	-4	-12	-2	–	–
24	1980	8	1200	105	–	–	–	–	CCc1c(F)ccc2cc(OC)cc(N3CCc4c(nc(OC[C@@]56CCCN5C[C@H](F)C6)nc4N4CCCn5nc(C(=O)N(C)C)cc5C4)C3)c12 [Example 469, 5-(7-(8-ethyl-7-fluoro-3-methoxynaphthalen-1-yl)-2-(((2R,7aS)-2-fluorohexahydro-1H-pyrrolizin-7a-yl)methoxy)-5,6,7,8-tetrahydropyrido[3,4-d]pyrimidin-4-yl)-N,N-dimethyl-5,6,7,8-tetrahydro-4H-pyrazolo[1,5-a][1,4]diazepine-2-carboxamide]	2	0	-1	0	–	–
